Source: PubChem BioAssay (NCI)
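Cells were grown in 96-well plates and exposed to each compound for 48 hours at five concentrations; endpoints were interpolated linearly between bracketing concentrations, or set to the highest concentration if not reached. GI50 is the concentration that inhibits growth by half. TGI marks complete inhibition of growth.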

How the values were obtained:
Assay in all cases: inhibition of tumour cell growth, NCI panel, 48 h
[1] = tested on: SK-MEL-28 melanoma
[2] = tested on: SF-268 CNS
[3] = tested on: HCC-2998 colon
[4] = tested on: SK-MEL-2 melanoma
[5] = tested on: NCI-H460 lung
[6] = tested on: UO-31 renal
[7] = tested on: M14 melanoma
[8] = tested on: HOP-92 NSCLC
[9] = tested on: HL-60(TB) leukemia
[10] = tested on: MDA-MB-468 breast
[11] = tested on: MDA-MB-231 breast
[12] = tested on: T-47D breast
[13] = tested on: OVCAR-5 ovarian
[14] = tested on: NCI/ADR-RES ovarian
[15] = tested on: OVCAR-4 ovarian
[16] = tested on: MOLT-4 leukemia
[17] = tested on: DU-145 prostate
[18] = tested on: MALME-3M melanoma
[19] = tested on: SF-295 CNS
[20] = tested on: HCT-15 colon
[21] = tested on: SN12C renal
[22] = tested on: TK-10 renal
[23] = tested on: SR leukemia
[24] = tested on: HS 578T breast
[25] = tested on: SK-MEL-5 melanoma
[26] = tested on: A498 renal
[27] = tested on: IGROV1 ovarian
[28] = tested on: SNB-75 CNS
[29] = tested on: UACC-62 melanoma
[30] = tested on: MCF7 breast
[31] = tested on: U251 CNS
[32] = tested on: SW-620 colon
[33] = tested on: SK-OV-3 ovarian
[34] = tested on: 786-0 renal
[35] = tested on: SF-539 CNS
[36] = tested on: UACC-257 melanoma
[37] = tested on: OVCAR-3 ovarian
[38] = tested on: CCRF-CEM leukemia
[39] = tested on: RPMI-8226 leukemia
[40] = tested on: PC-3 prostate
[41] = tested on: CAKI-1 renal
[42] = tested on: HOP-62 NSCLC
[43] = tested on: ACHN renal
[44] = tested on: RXF 393 renal
[45] = tested on: KM12 colon
[46] = tested on: SNB-19 CNS
[47] = tested on: LOX IMVI melanoma
[48] = tested on: EKVX NSCLC
[49] = tested on: MDA-MB-435
[50] = tested on: K-562 leukemia
[51] = tested on: COLO 205 colon
[52] = tested on: NCI-H226 lung
[53] = tested on: BT-549 breast
[54] = tested on: OVCAR-8 ovarian
[55] = tested on: HT29 colon
[56] = tested on: NCI-H522 lung
[57] = tested on: HCT-116 colon
[58] = tested on: NCI-H23 lung
[59] = tested on: A549 NSCLC

COc1ccc2[nH]c(O)c(N=NC(=O)COc3ccc(NC(=O)Nc4ccc(Cl)c(Cl)c4)cc3)c2c1
GI50 [1]: 1.63 µM
TGI [1]: 4.05 µM
GI50 [2]: 1.64 µM
TGI [2]: 10.2 µM
GI50 [3]: 2.97 µM
TGI [3]: 15.6 µM
GI50 [4]: 10.4 µM
TGI [4]: 23 µM
GI50 [5]: 0.437 µM
TGI [5]: 1.49 µM
GI50 [6]: 31.3 µM
TGI [6]: > 100 µM
GI50 [7]: 0.992 µM
TGI [7]: 4.57 µM
GI50 [8]: 0.615 µM
TGI [8]: 2.63 µM
GI50 [9]: 6.71 µM
TGI [9]: 25.1 µM
GI50 [10]: 1.17 µM
TGI [10]: 3.01 µM
GI50 [11]: 1.46 µM
TGI [11]: 3.55 µM
GI50 [12]: 1.46 µM
TGI [12]: 3.26 µM
GI50 [13]: 1.53 µM
TGI [13]: 6 µM
GI50 [14]: 25.4 µM
TGI [14]: > 100 µM
GI50 [15]: 0.691 µM
TGI [15]: 2.74 µM
GI50 [16]: 1.61 µM
TGI [16]: 17.9 µM
GI50 [17]: 0.493 µM
TGI [17]: 1.91 µM
GI50 [18]: 0.452 µM
TGI [18]: 1.68 µM
GI50 [19]: 1.91 µM
TGI [19]: 5.22 µM
GI50 [20]: 31.6 µM
TGI [20]: > 100 µM
GI50 [21]: 1.1 µM
TGI [21]: 3.45 µM
GI50 [22]: 3.79 µM
TGI [22]: 14.6 µM
GI50 [23]: 1.04 µM
TGI [23]: 18.4 µM
GI50 [24]: 1.87 µM
TGI [24]: 5.52 µM
GI50 [25]: 1.99 µM
TGI [25]: 5.36 µM
GI50 [26]: 1.84 µM
TGI [26]: 5.4 µM
GI50 [27]: 1.91 µM
TGI [27]: 6.35 µM
GI50 [28]: 1.61 µM
TGI [28]: 3.98 µM
GI50 [29]: 2.86 µM
TGI [29]: 12.7 µM
GI50 [30]: 0.488 µM
TGI [30]: 6.05 µM
GI50 [31]: 3.37 µM
TGI [31]: 14.9 µM
GI50 [32]: 0.441 µM
TGI [32]: 1.37 µM
GI50 [33]: 5.1 µM
TGI [33]: 17.5 µM
GI50 [34]: 1.07 µM
TGI [34]: 2.75 µM
GI50 [35]: 0.767 µM
TGI [35]: 2.09 µM
GI50 [36]: 3.36 µM
TGI [36]: 15.9 µM
GI50 [37]: 0.696 µM
TGI [37]: 2.28 µM
GI50 [38]: 0.822 µM
TGI [38]: 19.1 µM
GI50 [39]: 2.71 µM
TGI [39]: > 100 µM
GI50 [40]: 1.42 µM
TGI [40]: 4.72 µM
GI50 [41]: 2.39 µM
TGI [41]: 11 µM
GI50 [42]: 2.88 µM
TGI [42]: 14.1 µM
GI50 [43]: 2.18 µM
TGI [43]: 13.2 µM
GI50 [44]: 1.05 µM
TGI [44]: 2.9 µM
GI50 [45]: 1.29 µM
TGI [45]: 7.64 µM
GI50 [46]: 3.33 µM
TGI [46]: 14.2 µM
GI50 [47]: 0.309 µM
TGI [47]: 1.03 µM
GI50 [48]: 3.89 µM
TGI [48]: 25.9 µM
GI50 [49]: 0.605 µM
TGI [49]: 2.36 µM
GI50 [50]: 0.575 µM
TGI [50]: 19.7 µM
GI50 [51]: 1.12 µM
TGI [51]: 4.21 µM
GI50 [52]: 1.07 µM
TGI [52]: 3.45 µM
GI50 [53]: 2.01 µM
TGI [53]: 4.47 µM
GI50 [54]: 2.33 µM
TGI [54]: 15.7 µM

CC(=O)Nc1ccc(-n2cnc3cc(-c4ccc(O)cc4)ccc32)cc1C(F)(F)F
GI50 [1]: 6.4 µM
TGI [1]: 35.3 µM
GI50 [2]: 7.57 µM
TGI [2]: 84.4 µM
GI50 [3]: 5.31 µM
TGI [3]: 26.8 µM
GI50 [4]: 2.82 µM
TGI [4]: 9.73 µM
GI50 [55]: 6.03 µM
TGI [55]: > 100 µM
GI50 [5]: 4.81 µM
TGI [5]: > 100 µM
GI50 [6]: 4.84 µM
TGI [6]: 21.1 µM
GI50 [7]: 4.25 µM
TGI [7]: 30.6 µM
GI50 [8]: 11.6 µM
TGI [8]: 29.3 µM
GI50 [9]: 2.9 µM
TGI [9]: 13.5 µM
GI50 [10]: 0.225 µM
TGI [10]: 10.8 µM
GI50 [11]: 10 µM
TGI [11]: 38.2 µM
GI50 [12]: 4.73 µM
TGI [12]: 43.5 µM
GI50 [13]: 12.2 µM
TGI [13]: 34.4 µM
GI50 [14]: 2.25 µM
TGI [14]: 7.05 µM
GI50 [15]: 24.1 µM
TGI [15]: > 100 µM
GI50 [16]: 4.3 µM
TGI [16]: > 100 µM
GI50 [17]: 12.2 µM
TGI [17]: 46.9 µM
GI50 [56]: 1.6 µM
TGI [56]: 4.73 µM
GI50 [18]: 6.92 µM
TGI [18]: 51.5 µM
GI50 [19]: 5.47 µM
TGI [19]: 27.5 µM
GI50 [20]: 4.75 µM
TGI [20]: > 100 µM
GI50 [21]: 4.26 µM
TGI [21]: 34.5 µM
GI50 [22]: 14.8 µM
TGI [22]: 34.3 µM
GI50 [57]: 6.86 µM
TGI [57]: > 100 µM
GI50 [23]: 2.58 µM
TGI [23]: 12.5 µM
GI50 [24]: 15.3 µM
TGI [24]: 98.7 µM
GI50 [25]: 5.54 µM
TGI [25]: 32.9 µM
GI50 [26]: 25.6 µM
TGI [26]: 80.5 µM
GI50 [27]: 14.5 µM
TGI [27]: 87 µM
GI50 [58]: 6.2 µM
TGI [58]: 33.1 µM
GI50 [59]: 5.34 µM
TGI [59]: > 100 µM
GI50 [29]: 3.82 µM
TGI [29]: 20.6 µM
GI50 [30]: 4.13 µM
TGI [30]: 48.5 µM
GI50 [31]: 4.99 µM
TGI [31]: 32.4 µM
GI50 [32]: 6.29 µM
TGI [32]: > 100 µM
GI50 [33]: 17 µM
TGI [33]: 61.1 µM
GI50 [34]: 8.92 µM
TGI [34]: 39.1 µM
GI50 [35]: 6.25 µM
TGI [35]: 46.7 µM
GI50 [36]: 10.6 µM
TGI [36]: 39.3 µM
GI50 [37]: 15.7 µM
TGI [37]: > 100 µM
GI50 [38]: 6.65 µM
TGI [38]: > 100 µM
GI50 [39]: 4.73 µM
TGI [39]: 27.6 µM
GI50 [40]: 8.15 µM
TGI [40]: 39.5 µM
GI50 [41]: 8.34 µM
TGI [41]: 42 µM
GI50 [42]: 8.41 µM
TGI [42]: 30 µM
GI50 [43]: 6.62 µM
TGI [43]: 43.7 µM
GI50 [44]: 4.31 µM
TGI [44]: 18.5 µM
GI50 [45]: 3.93 µM
TGI [45]: 50.7 µM
GI50 [46]: 14 µM
TGI [46]: > 100 µM
GI50 [47]: 5.71 µM
TGI [47]: 19.1 µM
GI50 [48]: 9.92 µM
TGI [48]: 33.8 µM
GI50 [49]: 2.21 µM
TGI [49]: 6.17 µM
GI50 [50]: 4.53 µM
TGI [50]: > 100 µM
GI50 [51]: 11.2 µM
TGI [51]: 42.3 µM
GI50 [52]: 13.2 µM
TGI [52]: 58.6 µM
GI50 [53]: 4.76 µM
TGI [53]: 20.3 µM
GI50 [54]: 6.6 µM
TGI [54]: 68.1 µM
